Measurements: ChEMBL document CHEMBL5356986, “Research status of indole-modified natural products” (RSC Med Chem, 2023)
Converted amounts (≈) assume the structure as drawn. One block for each compound: values may come before it.

How the values were obtained:
HeLa [1] = test: Antiproliferative activity against human HeLa cells assessed as reduction in cell growth; assay type: functional, cell-based
Staphylococcus aureus [2] = test: Antibacterial activity against Staphylococcus aureus […] assessed as reduction in microbial growth; assay type: functional
Acinetobacter baumannii = test: Antibacterial activity against Acinetobacter baumannii assessed as reduction in bacterial growth by broth microdilution method; assay type: functional
Staphylococcus aureus [3] = test: Antibacterial activity against methicillin-resistant Staphylococcus aureus assessed as reduction in microbial growth; assay type: functional
Enterococcus faecalis = test: Antibacterial activity against Enterococcus faecalis assessed as reduction in bacterial growth; assay type: functional
Staphylococcus aureus [4] = test: Antibacterial activity against Staphylococcus aureus ATCC 29213 assessed as reduction in microbial growth; assay type: functional
Escherichia coli = test: Antibacterial activity against Escherichia coli assessed as reduction in bacterial growth by broth microdilution method; assay type: functional
CCRF-CEM = test: Growth inhibition of human CCRF-CEM cells; assay type: functional
RPMI-8226 = test: Growth inhibition of human RPMI-8226 cells; assay type: functional
H4 = test: Antiproliferative activity against human H4 cells assessed as cell growth inhibition; assay type: functional, cell-based
Bel-7402 = test: Cytotoxicity against human Bel-7402 cells assessed as reduction in cell viability measured after 72 hrs by MTT assay; assay type: functional, cell-based; details: Bel-7402, 72 h
[5] = Antioxidant activity assessed as DPPH radical scavenging activity measured after 30 mins; assay type: functional
MCF7 [6] = test: Antiproliferative activity against human MCF7 cells assessed as inhibition of cell growth after overnight incubation by MTT assay; assay type: functional, cell-based
HT-29 = test: Antiproliferative activity against human HT-29 cells assessed as inhibition of cell proliferation by MTT assay; assay type: functional, cell-based
HeLa [7] = test: Antiproliferative activity against human HeLa cells assessed as inhibition of cell growth incubated for 72 hrs by MTT assay; assay type: functional, cell-based
A549 [8] = test: Antiproliferative activity against human A549 cells assessed as reduction in cell viability by MTT assay; assay type: functional, cell-based
MCF7 [9] = test: Cytotoxicity against human MCF7 cells assessed as reduction in cell viability after 48 hrs by SRB assay; assay type: functional, cell-based; details: MCF7, 48 h
HeLa [10] = test: Cytotoxicity against human HeLa cells assessed as reduction in cell viability; assay type: functional, cell-based
CAMA-1 = test: Antiproliferative activity against human CAMA-1 cells assessed as cell growth inhibition; assay type: functional, cell-based
MDA-MB-453 = test: Antiproliferative activity against human MDA-MB-453 cells assessed as reduction in cell growth after 72 hrs by MTT assay; assay type: functional, cell-based; details: MDA-MB-453, 72 h
MCF7 [11] = test: Cytotoxicity against human MCF7 cells assessed as reduction in cell growth; assay type: functional, cell-based
HL-60 = test: Cytotoxicity against human HL-60 cells assessed as reduction in cell viability incubated for 48 hrs by MTT assay; assay type: functional, cell-based; details: HL-60, 48 h
SMMC-7721 = test: Cytotoxicity against human SMMC-7721 cells assessed as reduction in cell viability incubated for 48 hrs by MTT assay; assay type: functional, cell-based; details: SMMC-7721, 48 h
[12] = Cytotoxicity against human A549 cells assessed as cell growth inhibition measured after 24 hrs by MTT assay; assay type: functional, cell-based
SW480 = test: Cytotoxicity against human SW480 cells assessed as cell growth inhibition; assay type: functional, cell-based
[13] = test system: Human immunodeficiency virus 1; test: Antiviral activity against HIV-1 harboring integrase L74M mutant; assay type: functional, organism-based
A549 [14] = test: Antiproliferative activity against human A549 cells assessed as reduction in cell viability incubated for 48 hrs by MTT assay; assay type: functional, cell-based; details: A549, 48 h
K562 = test: Antiproliferative activity against human K562 cells assessed as cell growth inhibition by MTT assay; assay type: functional, cell-based

Compound: Cc1cc(=O)oc2cc(/N=C3/S/C(=C\c4c[nH]c5ccccc45)C(=O)N3CCO)ccc12
MIC (Staphylococcus aureus [2]): 0.25 µg/mL | MIC (Acinetobacter baumannii): 0.25 µg/mL (≈ 0.561 µM) | MIC (Staphylococcus aureus [3]): 0.25 µg/mL | MIC (Enterococcus faecalis): 0.25 µg/mL (≈ 0.561 µM) | MIC (Staphylococcus aureus [4]): 0.25 µg/mL | MIC (Escherichia coli): 0.25 µg/mL (≈ 0.561 µM)

Compound: CC1=C(O)C(=O)C=C2C1=CC=C1[C@@]2(C)CC[C@@]2(C)[C@@H]3C[C@](C)(C(=O)O)CC[C@]3(C)CC[C@]12C [CELASTROL]
IC50 (H4): 2.09 µM | IC50 (Bel-7402): 1.55 µM

Compound: COc1ccc2[nH]c(C(=O)OC3O[C@@H]4O[C@@]5(C)CC[C@H]6[C@H](C)CC[C@@H]([C@H]3C)[C@@]46OO5)cc2c1 (stereo partly specified)
IC50 (A549 [8]): 13.4 µM | IC50 (MCF7 [9]): 14.5 µM

Compound: COc1ccc(/C=C\c2cc(OC)c(OC)c(OC)c2)cc1OC(=O)c1cccc(-n2cc(CCOC(=O)[C@H](N)Cc3cn(C)c4ccccc34)nn2)c1
IC50 (HeLa [10]): 0.07 µM

Compound: COC(=O)C1=CO[C@@H](OC)[C@@H]2C(C(NCCc3c[nH]c4ccc(OC)cc34)NCCc3c[nH]c4ccc(OC)cc34)=CC[C@H]12
IC50 (MCF7 [11]): 0.58 µM | IC50 (HL-60): 0.43 µM | IC50 (SMMC-7721): 0.69 µM | IC50 [12]: 1.18 µM | IC50 (SW480): 0.89 µM

Compound: C=C(C)[C@@H]1CC[C@]2(C(=O)O)CC[C@]3(C)[C@H](CC[C@@H]4[C@@]5(C)CC[C@H](OC(=O)CC(C)(C)C(=O)O)C(C)(C)[C@@H]5CC[C@]43C)[C@@H]12 [BEVIRIMAT]
IC50 [13]: 0.065 µM

Compound: COc1cc([C@@H]2c3cc4c(cc3[C@H](NC(=O)C(=O)c3c[nH]c5ccc(C(=O)NC(C)C)cc35)[C@H]3COC(=O)[C@H]23)OCO4)cc(OC)c1OC
IC50 (HeLa [1]): 3.92 µM

Compound: COC(=O)C1=CO[C@@H](OC)[C@@H]2C(C(NCCc3c[nH]c4ccccc34)NCCc3c[nH]c4ccccc34)=CC[C@H]12
IC50 (MCF7 [11]): 3.1 µM | IC50 (HL-60): 0.9 µM | IC50 (SMMC-7721): 3.52 µM | IC50 [12]: 3.64 µM | IC50 (SW480): 2.53 µM

Compound: COc1ccc(/C=C\c2cc(OC)c(OC)c(OC)c2)cc1O [COMBRETASTATIN A4]
IC50 (HeLa [10]): 0.21 µM

Compound: COc1cc([C@@H]2c3cc4c(cc3[C@H](NC(=O)c3cc5c([nH]c6ccccc65)c(-c5ccc(F)c(F)c5)n3)[C@H]3COC(=O)[C@H]23)OCO4)cc(OC)c1OC
IC50 (A549 [14]): 2.24 µM

Further lines, with some results ahead:

IC50 (HeLa [1]): 0.79 µM
Compound: COc1ccc2c(/C=N/[C@H]3c4cc5c(cc4[C@@H](c4cc(OC)c(OC)c(OC)c4)[C@H]4C(=O)OC[C@@H]43)OCO5)cn(Cc3ccccc3F)c2c1

GI50 (CCRF-CEM): 0.28 µM | GI50 (RPMI-8226): 0.26 µM
Compound: C=C1C(=O)O[C@H]2[C@H]1CC1C(COC(=O)c3cc4ccccc4[nH]3)=CCC[C@@]3(C)O[C@@]123 (stereo partly specified)

EC50 [5]: 23 µM
Compound: O=C1O[C@H]([C@@H](O)CO)C(O)=C1O [ASCORBIC ACID]

IC50 (HeLa [1]): 0.1 µM
Compound: COc1cc([C@@H]2c3cc4c(cc3[C@H](NCc3c[nH]c5ccccc35)[C@H]3COC(=O)[C@H]23)OCO4)cc(OC)c1OC

IC50 (MCF7 [6]): 1.1 µM | IC50 (HT-29): 7.3 µM | IC50 (HeLa [7]): 2 µM
Compound: COC(=O)c1[nH]c2ccccc2c1/C=C/C(=O)c1cc(OC)c(OC)c(OC)c1

EC50 [5]: 51 µM
Compound: O=C(/C=C/c1ccc(O)c(O)c1)Nc1ccc2[nH]ccc2c1

IC50 (MDA-MB-453): < 0.01 µM
Compound: CC1(C)CCC(C)(C)c2cc(C(=O)/C=C/c3c[nH]c4ccccc34)ccc21
IC50 (CAMA-1): < 0.01 µM

GI50 (CCRF-CEM): 9.16 µM | GI50 (RPMI-8226): 8.2 µM
Compound: C=C1C(=O)O[C@@H]2C3O[C@]3(C)CC/C=C(\C)CC[C@@H]12 (stereo partly specified)

IC50 (HeLa [1]): 0.15 µM | IC50 (K562): 0.4 µM
Compound: COc1cc([C@@H]2c3cc4c(cc3[C@H](NC(=O)C(=O)c3cn(Cc5ccccc5Cl)c5ccc(F)cc35)[C@H]3COC(=O)[C@H]23)OCO4)cc(OC)c1OC

IC50 (HeLa [1]): 2.2 µM
Compound: COc1cc([C@@H]2c3cc4c(cc3[C@H](OC(=O)c3c[nH]c5ccccc35)[C@H]3COC(=O)[C@H]23)OCO4)cc(OC)c1OC
